Results: patent US11761894B2, “Silicon-rhodamine fluorescent probe containing hydrophobic group and use thereof” (AJOU UNIVERSITY INDUSTRY—ACADEMIC COOPERATION FOUNDATION, priority 2019, dated 2023)

Legend:
Format in all cases: cell-based, human
HeLa, and Hep3B cells = assay: High-resolution live cell imaging of SiR-Mito 8 with MitoTracker green; details: 1 μM, 60 min
Procedure: (§1) (a) HeLa and Hep3B cells were incubated with MitoTracker Green (0.5 μM), and SiR-Mito 8 (1 μM) for 1 h. After washing 3 times with fresh media, fluorescent live cell images were acquired with LEICA DMi8 microscope. (MitoTracker green: FITC channel, SiR-Mito 8: Cy 5 channel, Scale bar: 15 μm); (b) Chang liver cells expressing mitochondrial YFP were incubated with SiR-Mito 8 (1 μM) for 1 h. After washing 3 times with fresh media, fluorescent live cell images were acquired with LEICA DMi8 microscope. (Mitochondrial-YFP: Rhodamine channel, Scale bar: 15 μm).
Mitochondrial specificity in live cells labeled with SiR-Mito 8 and MitoTracker green was examined by high-resolution imaging.
To this end, HeLa, and Hep3B cells were cultured in Dulbecco's modified eagle media (DMEM, GIBCO) containing 10% fetal bovine serum (FBS, GIBCO) and 1% penicillin (GIBCO) at 37° C. in a humidified incubator with 5% CO2. For the fluorescence microscope imaging, cells were harvested using TrypLE™ Express (GIBCO) and resuspended in fresh culture medium. Harvested cells were seeded on a confocal dish with a density of 4.0×10^4 cells/well. After 24 h incubation, cells were incubated with SiR-Mito 8 (1 μM) and Mitotracker green (0.5 uM) for 60 min. Cells were washed three times with 1×PBS and observed with inverted fluorescence microscope (DMi8, LEICA).

[1] = tested on: Mitochondria-YFP Chang liver cells; assay: Mitochondrial targeting efficiency in Chang liver cells expressing mitochondrial YFP; details: 1 μM, 60 min
Procedure: as §1
The mitochondrial targeting efficiency of SiR-Mito 8 in live cells was examined by high-resolution imaging.
To this end, Overexpression plasmid for Mitochondria-YFP was obtained from Catholic University (Seoul, Korea) and transfected into Chang liver cells. Stable clones expressing Mitochondria-YFP was selected using 0.25 mg/ml G418. Next, Mitochondria-YFP infected Chang liver cells were cultured in Dulbecco's modified eagle media (DMEM, GIBCO) containing 10% fetal bovine serum (FBS, GIBCO) and 1% penicillin (GIBCO) at 37° C. in a humidified incubator with 5% CO2. For the fluorescence microscope imaging, cells were harvested using TrypLE™ Express (GIBCO) and resuspended in fresh culture medium. […] Cells were washed three times with 1×PBS and observed with inverted fluorescence microscope (DMi8, LEICA).

[2] = tested on: mitochondria in HeLa cells; assay: Colocalization test of SiR-Mito probes with MitoTracker green in HeLa cells; details: 1 μM probe, 1 h
Procedure: HeLa cells were incubated with cell culture media containing 1 μM SiR-Mito probe, and 0.5 μM MitoTracker green. After 1 h, HeLa cells were washed three times with 1×PBS for and observed with a LEICA DMi8 fluorescent microscope. Each experiment was observed using 512-542 nm emitter for FITC channel (for MitoTracker Green), and 663-738 nm exciter, 545-625 nm emitter for Cy5 channel (for SiR-Mito probes). Scale bar: 50 μm.
HeLa human cervical cancer cells were cultured in Dulbecco's modified eagle media (DMEM, GIBCO) containing 10% fetal bovine serum (FBS, GIBCO) and 1% penicillin (GIBCO) at 37° C. in a humidified incubator with 5% CO2. For the fluorescence microscope imaging, cells were harvested using TrypLE™ Express (GIBCO) and resuspended in fresh culture medium. Harvested cells with a density of 4.0×10^3 cells/well were seeded on a HeLa 96 black well plate (CORNING) and incubated for 24 h. Cells were incubated with SiR-Mito probes (1 μM) and MitoTracker Green (0.5 μM) for 60 min. After the incubation, cells were washed with 1×PBS for three times and observed with inverted fluorescence microscope (DMi8, LEICA). Each experiment was observed using a 325-375 nm exciter, 435-485 nm emitter for DAPI channel, 460-500 nm exciter, 512-542 nm emitter for FITC channel, 541-551 nm exciter, 565-605 nm emitter for Rhodamine channel, and 663-738 nm exciter, 545-625 nm emitter for Cy5 channel.
To determine the effect of probe hydrophobicity on the efficiency of targeting to mitochondria, the Pearson coefficient for colocalization of SiR-Mito probes and MitoTracker green, a commercial fluorescent mitochondrial bioprobe, was measured (FIG. 1). For the colocalization test, human cervical cancer HeLa cells were seeded on 96-well plates and incubated for 1 h with 1 μM of each different SiR-Mito probe and 0.5 μM MitoTracker green, washed briefly with 1×PBS, and imaged with a LEICA DMi8 fluorescent microscope using the 40× objective.

N-(10-(5-((cyclooctylmethyl) carbamoyl)-2-methylphenyl)-7-(dimethylamino)-5,5-dimethyldibenzo[b,e]silin-3(5H)-ylidene)-N-methylmethanaminium [SiR-Mito 8]
Mitochondrial specificity in live cells (co-expression with MitoTracker green) (HeLa, and Hep3B cells): highly co-expressed
Mitochondrial targeting efficiency [1]: high mitochondrial targeting efficiency
Mitochondria Targeting (Pearson coefficient for colocalization with MitoTracker green) ([2]; 0.5 μM MitoTracker green): *** (*** 0.9 ≤ R)
Pearson coefficient for colocalization with MitoTracker green ([2]; 0.5 μM MitoTracker green): highest
Intracellular fluorescence (SiR channel) [2]: strongest
